Experimental data taken from US4902677A, “Treatment of heart failure of mammals with N^6 -substituted cyclic adenosine monophosphates” (Kikkoman Corporation, priority 1987, dated 1990).
Structures can show the parent of a compound that is named as a salt.

What was measured:
[1] = tested on: guinea pig papillary muscle; test: Contractive force of extirpated guinea pig papillary muscle preparation (Test Example 1); settings: Cavia porcellus; 10^-3 M; relative to 10^-7 M Isoproterenol (positive control) as 100%; read-out: Increase in contractive force
Method: Test animal: guinea-pigs Method of Experiment: extirpated guinea pig papillary muscle preparation. Male albino guinea pigs having body weights of 300 to 500 g were stunned by a blow on the head. The hearts were quickly extirpated and the papillary muscles of the right ventricle were dissected out in cold bathing solution (2° to 4° C.), and were suspended in a 10 ml organ bath for recording isometric contractions. The bathing solution was the Krebs-Henseleit solution (32°±0.5° C.) and was continuously bubbled with a mixed gas composed of 95% O2 and 5% CO2. The papillary muscle preparation were stimulated by square wave pulses of 1 msec duration at the frequency of 1 Hz and at voltages of 20% above the threshold supplied by a square-wave pulse stimulator via a pair of the silver plate electrodes in which the preparations were placed. The isometric contraction was measured by a force-displacement transducer connected to a carrier-amplifier. The test solution was prepared by dissolving the sodium salt into distilled water or dissolving the free acid into Krebs-Henseleit solution. […] The results are shown as relative values (%), taking the result given by a reaction using 10^-7 M Isoproterenol (positive control) as 100%.

[2] = Acute toxicity, intraperitoneal (Test Example 3); settings: mouse, in vivo, ip, female mice, in dimethyl sulfoxide, observed for 7 days
Method: Test animal: female ICR-CRJ: CD-1 mice, 5 weeks old, body weight 29 to 32 g
LD50 was calculated according to the Richfield-Wilcockson method (Pharmacological Tests, p 200-205, Nanzando, 1967).

heart-lung preparation = test: Cardiotonic activity on heart-lung preparation, acute heart failure induced by Pentobarbital (Test Example 2); parameters: species or system dog; settings: for Change in Heart rate / Decrease in right atrium pressure / Increase in systemic output: versus nonadministration group
Method: Test animal: Crossbred adult dogs (female and male) Method of Experiment: cardiotonic activity on heart-lung preparation. Using female and male crossbred dogs having body weights of 9 to 10 kg anesthetized with Pentobarbital, heart-lung preparations were prepared in the usual way, on which systemic output, right atrium pressure and heart rate were measured. […] Regarding the control (no administration group), the results express the values after administration of Pentobarbital.

heart = settings: literature; result in words; cited from earlier work

## O=P1(O)OC[C@H]2O[C@@H](n3cnc4c(NCc5ccccc5)ncnc43)[C@H](O)[C@@H]2O1 [N^6 --Benzyl-C--AMP Na]
[1]
  activation at 1000 µM: 91.7%
[2]
  LD50 at 168 h: 383 mg/kg

## CCCCNc1ncnc2c1ncn2[C@@H]1O[C@@H]2COP(=O)(O)O[C@H]2[C@H]1O [N^6 --Butyl-C--AMP]
[1]
  activation at 1000 µM: 71%
[2]
  LD50 at 168 h: 350 mg/kg

## O=P1(O)OC[C@H]2O[C@@H](n3cnc4c(NCc5ccco5)ncnc43)[C@H](O)[C@@H]2O1 [N^6 --Furfuryl-C--AMP Na]
[1]
  activation at 1000 µM: 93.2%
[2]
  LD50 at 168 h: 483 mg/kg

## CCCCCCCNc1ncnc2c1ncn2[C@@H]1O[C@@H]2COP(=O)(O)O[C@H]2[C@H]1O [N^6 --Heptyl-C--AMP, N^6-heptyladenosine-3',5'-cyclic phosphate]
[1]
  activation at 1000 µM: 94.1%
heart-lung preparation; 10 mg or 30 mg, result in words
  acute heart failure state induced by Pentobarbital: remarkably improved
[2]
  LD50 at 168 h: 174 mg/kg

## CC(C)CNc1ncnc2c1ncn2[C@@H]1O[C@@H]2COP(=O)(O)O[C@H]2[C@H]1O [N^6 --Isobutyl-C--AMP]
[1]
  activation at 1000 µM: 24%

## CCCCCCCCCNc1ncnc2c1ncn2[C@@H]1O[C@@H]2COP(=O)(O)O[C@H]2[C@H]1O [N^6 --Nonyl-C--AMP Na]
[1]
  activation at 1000 µM: 49.5%
[2]
  LD50 at 168 h: 150 mg/kg

## CCCCCNc1ncnc2c1ncn2[C@@H]1O[C@@H]2COP(=O)(O)O[C@H]2[C@H]1O [N^6 --Pentyl-C--AMP]
[1]
  activation at 1000 µM: 98%

## CCCC(=O)Nc1ncnc2c1ncn2[C@@H]1O[C@@H]2COP(=O)(O)O[C@H]2[C@H]1OC(=O)CCC [N^6,2'-O-dibutyryl C-AMP]
heart
  myocardial contractility: have a mycocardial contractile effect

## CCCCCCCNc1ncnc2c1ncn2[C@@H]1O[C@@H]2COP(=O)(O)O[C@H]2[C@H]1O [sodium salt of N^6-heptyl-adenosine-3',5'-cyclic phosphate]
heart-lung preparation; 10 mg
  Heart rate: 112 beats/min.
  Right atrium pressure: 96.9 mm H2 O
  Systemic output: 409 ml/min./100 g heart
  Change in Heart rate: 2 beats/min.
  Decrease in right atrium pressure: 12.1 mm H2 O
  Increase in systemic output: 150 ml/min./100 g heart
heart-lung preparation; 30 mg
  Heart rate: 120 beats/min.
  Right atrium pressure: 68.3 mm H2 O
  Systemic output: 610 ml/min./100 g heart
  Change in Heart rate: 10 beats/min.
  Decrease in right atrium pressure: 40.7 mm H2 O
  Increase in systemic output: 351 ml/min./100 g heart
